From publication PMC7506137, “Selective Phosphodiesterase 1 Inhibitor BTTQ Reduces Blood Pressure in Spontaneously Hypertensive and Dahl Salt Sensitive Rats: Role of Peripheral Vasodilation” (Frontiers in Physiology, 2020)
Several values for one entry are separate records, joined by “and”; a condition that tells them apart may be missing. Identical values can stand only once.

Legend:
Human PDE11A = biological target: T1, Human PDE11A (Homo sapiens, UniProt Q9HCR9); experiment: PDE scintillation proximity enzyme assay; format: biochemical; details: geometric mean (SD, n)
T1 construct: made in house; host or cells: baculovirus-infected insect cells
Experimental: (§1) All PDE proteins were expressed in baculoviral infected insect cells using standard methods [pFastBac, pFastBac Dual (Invitrogen), pIEX4 (Novagen)]. See Supplementary Table 1 for DNA sequences, construct boundaries, affinity tags, and expression vectors. HIS6 tagged PDE proteins were purified using Ni-NTA agarose (Qiagen) followed by size exclusion chromatography on a Superdex 200 column (GE Healthcare) in storage buffer (20 mM Tris-HCl, pH 7.5, 150 mM NaCl, 10% Glycerol). FLAG-tagged PDE proteins including the PDE6A/6B heterodimer were purified using anti-FLAG M2-agarose (Sigma-Aldrich), after purification through NiNTA column chromatography and eluted in storage buffer (50 mM Tris-HCl, pH 7.5, 150 mM NaCl, 10% Glycerol, 0.1 mg/ml Flag peptide). All purified proteins were stored at −80°C in small aliquots.
(§2) All PDE enzyme activities were measured with a yittrium silicate based scintillation proximity assay that detects radioactive nucleotide monophosphates but not cyclic monophosphates. Assays are conducted in a total volume of 50 μl in 384 well plates (3706, Corning): comprised of 24 μl enzyme, 1 μl compound, and 25 μl of cyclic nucleotide. The general assay buffer consists of 50 mM Tris-HCl (pH 7.5) and 0.1% (w/v) bovine serum albumin (Fatty Acid Free, Sigma-Aldrich). Enzyme concentrations, substrate concentrations, and various PDE-specific buffer additives are described in Supplementary Table 1. Compounds to be tested are diluted in pure dimethyl sulfoxide (DMSO) using 10-point concentration-response curves, and 1 μl is acoustically dispensed into assay plates using the Echo555 (LabCyte). Maximal compound concentration in the reaction mixture is either 10 or 100 μM. Compounds at the appropriate concentration are pre-incubated with either of the PDE enzymes for 30 min before the reaction is started by the addition of substrate ([8-^3H]-cAMP, 20.7 Ci/mmol or [8-^3H]-cGMP; 6.5 Ci/mmol, Perkin Elmer). Reactions are allowed to proceed for 60 min at room temperature before quenching. Next, reactions are stopped by the addition of 400 μg/per well SPA beads (RPNQ0150, Perkin Elmer) and a potent non-selective PDE inhibitor to quench the reaction. Bead bound radioactivity (product) is quantified 12 h later a Microbeta counter (Perkin Elmer). Data is normalized to % inhibition using standard methods ([Campbell et al., 2004]), and IC50 values were plotted using PRISM (GraphPad Software) using the 4 parameter logistic equation ([Campbell et al., 2004]). Data for potency values are expressed as the geometric mean and arithmetic standard deviation.

Human PDE1A = biological target: T2, Human PDE1A (Homo sapiens, UniProt P54750); experiment: PDE scintillation proximity enzyme assay; format: biochemical; details: geometric mean (SD, n)
T2 construct: made in house; host or cells: baculovirus-infected insect cells
Experimental: as §1, §2

Human PDE1B = biological target: T3, Human PDE1B (Homo sapiens, UniProt Q01064); experiment: PDE scintillation proximity enzyme assay; format: biochemical; details: geometric mean (SD, n)
T3 construct: made in house; host or cells: baculovirus-infected insect cells
Experimental: as §1, §2

Human PDE1C = biological target: T4, Human PDE1C (Homo sapiens, UniProt Q14123); experiment: PDE scintillation proximity enzyme assay; format: biochemical; details: geometric mean (SD, n)
T4 construct: made in house; host or cells: baculovirus-infected insect cells
Experimental: as §1, §2

Human PDE4D = biological target: T5, Human PDE4D (Homo sapiens, UniProt Q08499); experiment: PDE scintillation proximity enzyme assay; format: biochemical; details: geometric mean (SD, n)
T5 construct: made in house; host or cells: baculovirus-infected insect cells
Experimental: as §1, §2

Human PDE7B = biological target: T6, Human PDE7B (Homo sapiens, UniProt Q9NP56); experiment: PDE scintillation proximity enzyme assay; format: biochemical; details: geometric mean (SD, n)
T6 construct: made in house; host or cells: baculovirus-infected insect cells
Experimental: as §1, §2

Sprague Dawley rats [1] = experiment: Rat ear temperature (vasodilation); format: in vivo
Experimental: Male Sprague Dawley rats at 6 to 7 weeks were dosed orally by p.o. gavage with different doses of BTTQ formulated in 1% hydroxyethlycellulose (Dow Corning, Midland, MI, United States) (w/v), 0.25% polysorbate 80 (Sigma-Aldrich, St. Louis, MO, United States) (v/v), and 0.05% antifoam (v/v; Dow Corning, Midland, MI, United States) in purified water. Following dosing, ear temperature was measured by using a k-type thermocouple probe digital thermometer (Cole Parmer) every hour for 6 h and then at 24 h. Blood samples for plasma exposure measurement were obtained at the same time. Blood was collected via a tail snip directly into a 20-μL EDTA-coated capillary and immediately spotted onto a Whatman DMPK-C DBS card (GE Healthcare Bio-Sciences). Tail snips were performed by removing approximately 1 mm of the tail by using a scalpel. Blood flow was initiated by gentle squeezing of the tail. No analgesia or anesthesia was used during blood collections. A single sample and spot were collected per time point. The DBS cards were allowed to dry for approximately 2 h at room temperature, after which the cards were placed in a zip-top bag, stored, and shipped at ambient temperature.
(§3) All data in this manuscript were presented as mean ± SEM with a significance level of p < 0.05, and n represents the number of individual animals. The significance of differences in concentration-response curves in the ear temperature and, myograft study were calculated using t-test, compare to the vehicle group. The EC50 was calculated using GraphPad Prism 8.3 using a 4-parameter logistic non-linear curve fit model. Single-dose rat telemetry data for normal and SHR rats and repeat-dose telemetry data in Dahls salt-sensitive rats were analyzed by two-way repeated measures ANOVA. Treatment group main effects were compared by Tukey’s HSD method. All telemetry data were analyzed with GraphPad Prism 8.3.

[2] = Fraction unbound in rat plasma; format: in vitro ADME; details: read-out: FU Value (FU Plasma Exp Rat)
Description: Supplement Table_2.xlsx, sheet "Supplementary table 2"

Dahl Salt Sensitive rats = experiment: Rat telemetry, blood pressure and heart rate; format: in vivo
Description: (§4) Male Sprague Dawley (Taconic Biosciences) rats, Spontaneous Hypertensive rats (Charles River Laboratories, United States), and Dahl Salt Sensitive rats (Medical College of Wisconsin) were implanted with transmitters (HD S10; Data Science International) for collection of BP and heart rate (HR) data. The transmitters are capable of transmitting a BP signal via a pressure catheter inserted into the abdominal aorta. Initially, a baseline was established and recorded. Each rat was then removed from its recording cage and was dosed by p.o. gavage with vehicle or compound and the animals were then returned to the recording cage. Data sampling for BP and HR was carried out in intervals at selected time points for the duration of the experiment.
as §3

[3] = system: Spontaneous Hypertensive rats (SHR); experiment: Rat telemetry, blood pressure and heart rate; format: in vivo
Description: as §4, §3

Sprague Dawley rats [4] = experiment: Rat telemetry, blood pressure and heart rate; format: in vivo
Description: as §4, §3

[5] = 3 mg/kg twice daily oral for 21 days, high salt (4%) diet

T3 sequence (Q01064 whole entry): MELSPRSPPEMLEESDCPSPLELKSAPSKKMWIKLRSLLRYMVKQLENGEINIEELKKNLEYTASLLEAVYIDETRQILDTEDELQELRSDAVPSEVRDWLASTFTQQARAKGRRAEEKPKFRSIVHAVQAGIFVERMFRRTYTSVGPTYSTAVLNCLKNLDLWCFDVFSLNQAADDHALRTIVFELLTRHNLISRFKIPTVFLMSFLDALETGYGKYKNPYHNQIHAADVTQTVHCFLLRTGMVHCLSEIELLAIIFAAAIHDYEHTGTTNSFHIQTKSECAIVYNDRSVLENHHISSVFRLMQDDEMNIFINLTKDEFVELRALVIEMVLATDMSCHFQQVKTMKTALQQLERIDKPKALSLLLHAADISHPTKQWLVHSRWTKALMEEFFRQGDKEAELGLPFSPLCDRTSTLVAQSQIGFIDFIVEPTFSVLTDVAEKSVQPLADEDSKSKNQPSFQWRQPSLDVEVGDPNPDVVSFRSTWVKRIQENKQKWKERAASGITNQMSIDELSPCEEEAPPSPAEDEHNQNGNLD
T2 sequence (P54750 whole entry): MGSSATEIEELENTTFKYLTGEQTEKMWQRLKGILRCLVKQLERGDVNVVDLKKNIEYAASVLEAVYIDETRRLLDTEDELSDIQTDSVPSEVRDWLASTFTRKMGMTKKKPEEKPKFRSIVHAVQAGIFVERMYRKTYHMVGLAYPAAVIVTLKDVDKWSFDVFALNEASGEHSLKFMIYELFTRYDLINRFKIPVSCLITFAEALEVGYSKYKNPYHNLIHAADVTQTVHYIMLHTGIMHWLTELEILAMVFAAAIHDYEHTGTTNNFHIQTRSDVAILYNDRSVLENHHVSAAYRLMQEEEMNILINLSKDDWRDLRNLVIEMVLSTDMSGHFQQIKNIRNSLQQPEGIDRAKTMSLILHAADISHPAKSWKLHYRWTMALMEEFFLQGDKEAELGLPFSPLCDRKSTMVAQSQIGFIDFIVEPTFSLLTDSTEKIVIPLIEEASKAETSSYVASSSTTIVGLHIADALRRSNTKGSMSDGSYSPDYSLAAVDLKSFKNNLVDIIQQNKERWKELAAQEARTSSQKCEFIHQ
T1 sequence (Q9HCR9 whole entry): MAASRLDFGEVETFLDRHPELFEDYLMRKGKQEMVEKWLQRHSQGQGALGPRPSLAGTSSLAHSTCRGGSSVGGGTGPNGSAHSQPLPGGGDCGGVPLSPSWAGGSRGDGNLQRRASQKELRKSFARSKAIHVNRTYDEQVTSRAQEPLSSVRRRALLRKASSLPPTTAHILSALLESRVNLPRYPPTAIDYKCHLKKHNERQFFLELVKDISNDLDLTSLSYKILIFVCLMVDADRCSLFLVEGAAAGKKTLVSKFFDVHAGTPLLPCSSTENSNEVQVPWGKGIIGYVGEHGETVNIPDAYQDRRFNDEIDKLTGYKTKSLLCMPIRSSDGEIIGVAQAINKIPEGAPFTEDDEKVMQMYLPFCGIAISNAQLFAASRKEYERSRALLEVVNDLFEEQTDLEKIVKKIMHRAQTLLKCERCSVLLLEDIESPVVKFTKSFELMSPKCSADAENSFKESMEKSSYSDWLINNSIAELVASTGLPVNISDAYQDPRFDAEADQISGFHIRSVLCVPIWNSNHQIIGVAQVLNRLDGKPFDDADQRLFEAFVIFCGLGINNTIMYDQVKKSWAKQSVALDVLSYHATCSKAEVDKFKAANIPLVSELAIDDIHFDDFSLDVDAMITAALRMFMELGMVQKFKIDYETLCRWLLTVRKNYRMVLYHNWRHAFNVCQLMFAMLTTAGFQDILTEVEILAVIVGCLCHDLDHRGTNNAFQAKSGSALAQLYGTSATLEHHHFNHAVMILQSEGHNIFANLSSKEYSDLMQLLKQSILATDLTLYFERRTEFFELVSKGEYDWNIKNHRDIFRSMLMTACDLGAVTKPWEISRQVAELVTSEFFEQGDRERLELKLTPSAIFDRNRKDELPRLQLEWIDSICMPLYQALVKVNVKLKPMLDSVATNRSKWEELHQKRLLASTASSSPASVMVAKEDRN
T4 sequence (Q14123 whole entry): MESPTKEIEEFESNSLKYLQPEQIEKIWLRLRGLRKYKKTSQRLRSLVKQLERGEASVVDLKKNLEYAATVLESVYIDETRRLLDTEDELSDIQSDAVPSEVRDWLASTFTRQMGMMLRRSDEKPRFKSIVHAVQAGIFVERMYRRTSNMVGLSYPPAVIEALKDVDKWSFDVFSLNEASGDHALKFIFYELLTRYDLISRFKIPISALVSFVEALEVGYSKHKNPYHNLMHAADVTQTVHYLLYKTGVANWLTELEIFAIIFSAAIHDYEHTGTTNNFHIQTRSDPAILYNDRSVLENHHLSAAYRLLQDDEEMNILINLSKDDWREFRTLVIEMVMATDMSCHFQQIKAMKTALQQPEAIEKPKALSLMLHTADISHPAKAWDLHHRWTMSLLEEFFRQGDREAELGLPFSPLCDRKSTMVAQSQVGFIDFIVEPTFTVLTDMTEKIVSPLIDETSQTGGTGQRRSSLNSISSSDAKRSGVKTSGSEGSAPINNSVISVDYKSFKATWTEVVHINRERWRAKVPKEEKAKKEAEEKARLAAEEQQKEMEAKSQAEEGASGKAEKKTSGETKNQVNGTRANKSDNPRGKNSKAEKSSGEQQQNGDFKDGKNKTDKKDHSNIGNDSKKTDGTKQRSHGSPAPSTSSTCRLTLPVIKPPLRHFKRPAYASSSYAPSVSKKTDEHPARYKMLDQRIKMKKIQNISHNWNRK
T6 sequence (Q9NP56 whole entry): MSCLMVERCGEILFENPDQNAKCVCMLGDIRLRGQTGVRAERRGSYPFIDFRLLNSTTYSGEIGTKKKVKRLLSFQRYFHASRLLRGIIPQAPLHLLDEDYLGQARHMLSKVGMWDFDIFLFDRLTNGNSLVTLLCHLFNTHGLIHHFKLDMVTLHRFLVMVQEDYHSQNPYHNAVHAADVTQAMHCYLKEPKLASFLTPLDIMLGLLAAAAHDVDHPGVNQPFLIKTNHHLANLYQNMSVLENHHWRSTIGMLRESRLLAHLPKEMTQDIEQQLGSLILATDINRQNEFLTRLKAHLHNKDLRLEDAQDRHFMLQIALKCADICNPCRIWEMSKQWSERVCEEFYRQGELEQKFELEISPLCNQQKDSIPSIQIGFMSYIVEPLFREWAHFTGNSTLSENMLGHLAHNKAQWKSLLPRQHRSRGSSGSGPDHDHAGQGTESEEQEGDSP
T5 sequence (Q08499 whole entry): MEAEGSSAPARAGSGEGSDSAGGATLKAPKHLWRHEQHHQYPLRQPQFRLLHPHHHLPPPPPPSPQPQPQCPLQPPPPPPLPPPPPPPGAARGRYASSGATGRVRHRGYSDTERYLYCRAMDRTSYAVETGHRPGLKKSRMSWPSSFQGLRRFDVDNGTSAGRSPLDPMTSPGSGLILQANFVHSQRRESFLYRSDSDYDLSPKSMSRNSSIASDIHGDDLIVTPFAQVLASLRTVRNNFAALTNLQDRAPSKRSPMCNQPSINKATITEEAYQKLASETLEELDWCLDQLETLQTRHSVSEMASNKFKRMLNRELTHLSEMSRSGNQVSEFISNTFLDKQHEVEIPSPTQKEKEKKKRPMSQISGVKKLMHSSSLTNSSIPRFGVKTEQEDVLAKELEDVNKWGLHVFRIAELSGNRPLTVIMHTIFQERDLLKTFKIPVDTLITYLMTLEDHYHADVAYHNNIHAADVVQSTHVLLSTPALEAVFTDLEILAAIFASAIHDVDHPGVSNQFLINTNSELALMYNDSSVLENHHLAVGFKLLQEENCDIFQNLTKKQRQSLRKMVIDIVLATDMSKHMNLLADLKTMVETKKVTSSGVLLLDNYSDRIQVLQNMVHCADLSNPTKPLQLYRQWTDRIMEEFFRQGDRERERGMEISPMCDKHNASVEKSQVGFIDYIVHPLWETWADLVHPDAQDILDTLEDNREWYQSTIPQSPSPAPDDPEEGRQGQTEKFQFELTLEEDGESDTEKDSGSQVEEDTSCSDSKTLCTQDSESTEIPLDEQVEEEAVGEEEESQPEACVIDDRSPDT

IC50 (Human PDE11A): 2400 nM | IC50 (Human PDE1A): 1 nM | IC50 (Human PDE1B): 0.5 nM and 0.45 nM | IC50 (Human PDE1C): 0.14 nM | IC50 (Human PDE4D): 12 µM | IC50 (Human PDE7B): 1600 nM | fraction unbound [2]: 0.053
Structure (SMILES): O=c1c2nnc(C3(C4CC4)CC3)n2c2c(n1CC1CC1)CCCC2 [BTTQ, 1-[1,1′-bi(cyclopropyl)-1-yl]-5-(cyclopropylmethyl)-6,7,8,9-tetrahydro[1,2,4]triazolo[4,3-A]quinoxaline-4(5H)-one]
increase of ear temperature compared to the vehicle control (Sprague Dawley rats [1]; 3 mg/kg single oral dose, within 1 h): 14% | ear temperature (Sprague Dawley rats [1]; 0.1, 0.3, and 1 mg/kg single oral dose): significant dose-dependent increase | ED50 (Sprague Dawley rats [1]; Rattus norvegicus, single oral dose, 1 h time point, four parametric logistic equation, read-out: median effective dose (ED50), ear temperature): 0.14 mg/kg | time at which ear temperature returned to baseline (Sprague Dawley rats [1]; all doses, single oral dose): 6 h | time for which the increase in ear temperature stayed significant (Sprague Dawley rats [1]; single oral dose): up to 3 h | MAP compared to the vehicle-treated group (Dahl Salt Sensitive rats; [5]): profound reduction | heart rate (Dahl Salt Sensitive rats; [5]): elevation of heart rate | lowering of blood pressure compared to the vehicle-treated group (Dahl Salt Sensitive rats; Dahl salt-sensitive rats): ~24 mmHg | effect on BP ([3]; 0.03 mg/kg twice daily oral): did not show any effect | effect on HR ([3]; 0.03 mg/kg twice daily oral): did not show any effect | MAP ([3]; 0.03, 0.1, 0.3, 1, and 3 mg/kg twice daily oral, 24 h telemetry): dose-dependent decrease | heart rate ([3]; 0.03-3 mg/kg twice daily oral): dose-dependent increase | additional blood pressure lowering ([3]; BTTQ administered on top of ACE inhibitor): about 22 mmHg | lowering of blood pressure compared to the vehicle-treated group ([3]; SHR): ~36 mmHg | heart rate (Sprague Dawley rats [4]; 1 and 3 mg/kg twice daily oral): dose-dependent increase | immediate decrease in MAP compared to the vehicle (Sprague Dawley rats [4]; 1 and 3 mg/kg twice daily oral (both groups), within 1 h of the first dose): about 5 mmHg | time after second dose at which BP-lowering effect returned to baseline (Sprague Dawley rats [4]; high dose group (3 mg/kg twice daily oral)): 7 h | lowering of blood pressure compared to the vehicle-treated group (Sprague Dawley rats [4]; normal Sprague Dawley rats): about 9 mmHg
